Data published in PubChem BioAssay AID330 (DTP/NCI, 2004).
Several values for one entry are separate records, joined by “and”; a condition that tells them apart may be missing. Equal entries are not always repeated. Inconclusive results and toxic doses are left out. The calls were made as follows: active = survival T/C of 150% or more; inactive = T/C below 125% in these data.

System: P388 leukemia ip, CD2F1 mice, survival T/C
Assay: NCI In Vivo Anticancer Drug Screen. Data for tumor model P388 Leukemia (intraperitoneal) in CD2F1 (CDF1) mice
Settings: endpoint: median survival time, higher = longer survival
Method in brief: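 Mice carrying the transplanted tumor received test compound or vehicle. Survival was recorded in each group, and the value is the treated-group measurement divided by that of the vehicle-treated control group.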

[1] = dose: 60.0 mg/kg/injection, schedule: Q01DX005 (ip), vehicle: saline with Tween-80
[2] = dose: 120.0 mg/kg/injection, schedule: Q01DX005 (ip), vehicle: saline with Tween-80
[3] = dose: 240.0 mg/kg/injection, schedule: Q01DX005 (ip), vehicle: saline with Tween-80
[4] = dose: 60.0 mg/kg/injection, schedule: Q01DX005 (ip), vehicle: Klucel (hydroxypropylcellulose) (HPC)
[5] = dose: 120.0 mg/kg/injection, schedule: Q01DX005 (ip), vehicle: Klucel (hydroxypropylcellulose) (HPC)
[6] = dose: 240.0 mg/kg/injection, schedule: Q01DX005 (ip), vehicle: Klucel (hydroxypropylcellulose) (HPC)
[7] = dose: 50.0 mg/kg/injection, schedule: Q01DX009 (ip), vehicle: saline with Tween-80
[8] = dose: 100.0 mg/kg/injection, schedule: Q01DX009 (ip), vehicle: saline with Tween-80
[9] = dose: 200.0 mg/kg/injection, schedule: Q01DX009 (ip), vehicle: saline with Tween-80
[10] = dose: 25.0 mg/kg/injection, schedule: Q04DX003 (ip), vehicle: saline
[11] = dose: 50.0 mg/kg/injection, schedule: Q04DX003 (ip), vehicle: saline
[12] = dose: 100.0 mg/kg/injection, schedule: Q04DX003 (ip), vehicle: saline
[13] = dose: 400.0 mg/kg/injection, schedule: Q04DX003 (ip), vehicle: saline
[14] = dose: 12.5 mg/kg/injection, schedule: Q04DX003 (ip), vehicle: saline
[15] = dose: 50.0 mg/kg/injection, schedule: Q01DX005 (ip), vehicle: saline with Tween-80
[16] = dose: 100.0 mg/kg/injection, schedule: Q01DX005 (ip), vehicle: saline with Tween-80
[17] = dose: 100.0 mg/kg/injection, schedule: Q01DX001 (ip), vehicle: saline with Tween-80

Measured: T/C

COC(=O)N1C(=O)CO[C@@H]1C(C)(C)C
inactive: [1] 103 % of control | [2] 99 % of control | [3] 104 % of control

O=C1C(O)=C(O)C(=O)c2cc3c(cc21)OCO3
inactive: [4] 98 % of control | [5] 102 % of control | [6] 102 % of control

O=[N+]([O-])c1cccnc1Sc1ncccn1
inactive: dose: 100.0 mg/kg/injection, schedule: Q04DX003 (ip), vehicle: saline with Tween-80 100 % of control | dose: 200.0 mg/kg/injection, schedule: Q04DX003 (ip), vehicle: saline with Tween-80 100 % of control | dose: 400.0 mg/kg/injection, schedule: Q04DX003 (ip), vehicle: saline with Tween-80 100 % of control

C/C(=N/NC(=O)O[C@@H]1C[C@H](C)CC[C@H]1C(C)C)c1cc[c]([Sn]([CH3])([Cl])[c]2ccccc2)cc1 (some centres undefined)
inactive: dose: 0.93 mg/kg/injection, schedule: Q01DX005 (ip), vehicle: Klucel (hydroxypropylcellulose) (HPC) 108 % of control | dose: 1.87 mg/kg/injection, schedule: Q01DX005 (ip), vehicle: Klucel (hydroxypropylcellulose) (HPC) 100 % of control | dose: 3.75 mg/kg/injection, schedule: Q01DX005 (ip), vehicle: Klucel (hydroxypropylcellulose) (HPC) 100 % of control and 109 % of control | dose: 7.5 mg/kg/injection, schedule: Q01DX005 (ip), vehicle: Klucel (hydroxypropylcellulose) (HPC) 107 % of control

CC(C)=CCC/C(C)=C/Cc1ccccc1
inactive: [7] 101 % of control and 109 % of control | [8] 103 % of control and 110 % of control | [9] 109 % of control

CC(=O)N1CCCC1C(=O)O (centres undefined)
inactive: [10] 102 % of control | [11] 112 % of control | [12] 105 % of control and 87 % of control | [13] 101 % of control

CCOC(=O)C(C)ONC(=O)Nc1ccc(Cl)cc1 (centres undefined)
inactive: [7] 105 % of control | [8] 103 % of control | [9] 95 % of control

Cc1ncc([N+](=O)[O-])n1CCSC(Cl)(Cl)Cl
inactive: [14] 99 % of control and 112 % of control | [10] 102 % of control and 111 % of control | [11] 112 % of control and 118 % of control | [12] 112 % of control and 89 % of control

COC1NC(=O)Oc2ccccc21 (centres undefined)
inactive: [15] 109 % of control and 97 % of control | [16] 108 % of control and 109 % of control | dose: 200.0 mg/kg/injection, schedule: Q01DX005 (ip), vehicle: saline with Tween-80 114 % of control

CC(C)(CN1CCCN(CC(C)(C)C(=O)O)C1=O)C(=O)O
inactive: dose: 50.0 mg/kg/injection, schedule: Q01DX009 (ip), vehicle: saline 93 % of control | dose: 100.0 mg/kg/injection, schedule: Q01DX009 (ip), vehicle: saline 94 % of control | dose: 200.0 mg/kg/injection, schedule: Q01DX009 (ip), vehicle: saline 98 % of control

COC(=O)C([NH-])c1ccccc1.COC(=O)C([NH-])c1ccccc1.[Cl][Pd][Cl] (centres undefined)
inactive: [12] 108 % of control | dose: 200.0 mg/kg/injection, schedule: Q04DX003 (ip), vehicle: saline 104 % of control | [13] 103 % of control

C1CN(SSN2CCOCC2)CCO1
inactive: dose: 12.5 mg/kg/injection, schedule: Q01DX009 (ip), vehicle: saline with Tween-80 113 % of control | dose: 25.0 mg/kg/injection, schedule: Q01DX009 (ip), vehicle: saline with Tween-80 104 % of control | [7] 100 % of control | [8] 100 % of control

O=C1CC2COc3ccccc3C2=NN1c1ccccc1 (centres undefined)
inactive: [1] 105 % of control | [2] 94 % of control | [3] 91 % of control

CC[CH2][Sn]([F])([F])[CH2]CC
inactive: dose: 0.78 mg/kg/injection, schedule: Q04DX003 (ip), vehicle: saline 105 % of control | dose: 1.56 mg/kg/injection, schedule: Q04DX003 (ip), vehicle: saline 100 % of control and 114 % of control | dose: 3.12 mg/kg/injection, schedule: Q04DX003 (ip), vehicle: saline 102 % of control | dose: 6.25 mg/kg/injection, schedule: Q04DX003 (ip), vehicle: saline 105 % of control | [14] 114 % of control

Nc1n[nH]c(CCCCc2nc(N)n[nH]2)n1
inactive: [4] 97 % of control | [5] 99 % of control | [6] 98 % of control

O=C(c1ccccc1)C(O)NC(=S)c1cccnc1 (centres undefined)
inactive: [7] 106 % of control | [8] 107 % of control | [9] 116 % of control

CC(=O)Nc1ccc(O)c(O)c1
inactive: [7] 116 % of control and 119 % of control | [8] 120 % of control | [9] 119 % of control

N#CC(Br)CNC(=O)Oc1ccccc1 (centres undefined)
inactive: dose: 50.0 mg/kg/injection, schedule: Q01DX005 (ip), vehicle: Klucel (hydroxypropylcellulose) (HPC) 104 % of control | dose: 100.0 mg/kg/injection, schedule: Q01DX005 (ip), vehicle: Klucel (hydroxypropylcellulose) (HPC) 106 % of control | dose: 200.0 mg/kg/injection, schedule: Q01DX005 (ip), vehicle: Klucel (hydroxypropylcellulose) (HPC) 105 % of control

CC(C)C1CCC(C)(Cl)C2CCC(C)(Cl)CC12 (centres undefined)
inactive: dose: 100.0 mg/kg/injection, schedule: Q04DX003 (ip), vehicle: other 90 % of control | dose: 200.0 mg/kg/injection, schedule: Q04DX003 (ip), vehicle: other 100 % of control | dose: 400.0 mg/kg/injection, schedule: Q04DX003 (ip), vehicle: other 100 % of control

Cc1ccccc1NC(=O)CCC(=O)NS(C)(=O)=O
inactive: [17] 102 % of control | dose: 200.0 mg/kg/injection, schedule: Q01DX001 (ip), vehicle: saline with Tween-80 95 % of control | dose: 400.0 mg/kg/injection, schedule: Q01DX001 (ip), vehicle: saline with Tween-80 95 % of control

CSc1cccc(NC(=O)OCCOc2ccccc2Cl)c1
inactive: [7] 105 % of control | [8] 101 % of control | [9] 100 % of control

CN(C)C(=S)n1c(=S)nc(N(C)C)sc1=S
inactive: dose: 12.5 mg/kg/injection, schedule: Q01DX005 (ip), vehicle: saline with Tween-80 103 % of control | dose: 25.0 mg/kg/injection, schedule: Q01DX005 (ip), vehicle: saline with Tween-80 108 % of control | [15] 108 % of control and 113 % of control | [16] 109 % of control

CN([NH-])C(=S)[S-].CN([NH-])C(=S)[S-].[Pt+4]
inactive: dose: 25.0 mg/kg/injection, schedule: Q04DX003 (ip), vehicle: Klucel (hydroxypropylcellulose) (HPC) 107 % of control | dose: 50.0 mg/kg/injection, schedule: Q04DX003 (ip), vehicle: Klucel (hydroxypropylcellulose) (HPC) 100 % of control | dose: 100.0 mg/kg/injection, schedule: Q04DX003 (ip), vehicle: Klucel (hydroxypropylcellulose) (HPC) 90 % of control

CC12CCCN1CC=C2CO (centres undefined)
inactive: dose: 25.0 mg/kg/injection, schedule: Q01DX001 (ip), vehicle: saline with Tween-80 100 % of control | dose: 50.0 mg/kg/injection, schedule: Q01DX001 (ip), vehicle: saline with Tween-80 96 % of control | [17] 100 % of control

CN(C)C(=O)c1cccc(COc2ccc(N3C(N)=NC(N)=NC3(C)C)cc2Cl)c1
inactive: dose: 4.0 mg/kg/injection, schedule: Q01DX001 (ip), vehicle: saline 96 % of control | dose: 8.0 mg/kg/injection, schedule: Q01DX001 (ip), vehicle: saline 99 % of control | dose: 8.0 mg/kg/injection, schedule: Q01DX009 (ip), vehicle: saline 107 % of control | dose: 16.0 mg/kg/injection, schedule: Q01DX001 (ip), vehicle: saline 95 % of control | dose: 16.0 mg/kg/injection, schedule: Q01DX009 (ip), vehicle: saline 100 % of control | dose: 16.0 mg/kg/injection, schedule: Q08DX002 (ip), vehicle: saline 100 % of control | dose: 32.0 mg/kg/injection, schedule: Q01DX001 (ip), vehicle: saline 93 % of control | dose: 32.0 mg/kg/injection, schedule: Q01DX009 (ip), vehicle: saline 111 % of control | dose: 32.0 mg/kg/injection, schedule: Q08DX002 (ip), vehicle: saline 110 % of control | dose: 64.0 mg/kg/injection, schedule: Q01DX001 (ip), vehicle: saline 96 % of control

CC1(C)N=C(N)N=C(N)N1c1ccc(CCc2ccccc2)c(Cl)c1
inactive: dose: 4.1 mg/kg/injection, schedule: Q01DX009 (ip), vehicle: saline with Tween-80 118 % of control | dose: 6.25 mg/kg/injection, schedule: Q04DX003 (ip), vehicle: saline sonified 113 % of control | dose: 9.3 mg/kg/injection, schedule: Q01DX009 (ip), vehicle: saline with Tween-80 118 % of control | dose: 12.5 mg/kg/injection, schedule: Q04DX003 (ip), vehicle: saline sonified 104 % of control | dose: 25.0 mg/kg/injection, schedule: Q04DX003 (ip), vehicle: saline sonified 100 % of control
